{
  "source": "patent US20210046085A1",
  "about": "“TREATMENT OF ADVANCED ESTROGEN RECEPTOR POSITIVE BREAST CANCER” (Pantarhei Oncology B.V., priority 2018, published 2021)",
  "key": {"SHBG": {"target": "T1, SHBG (Homo sapiens, UniProt P04278)", "T1 sequence (P04278 30-402)": "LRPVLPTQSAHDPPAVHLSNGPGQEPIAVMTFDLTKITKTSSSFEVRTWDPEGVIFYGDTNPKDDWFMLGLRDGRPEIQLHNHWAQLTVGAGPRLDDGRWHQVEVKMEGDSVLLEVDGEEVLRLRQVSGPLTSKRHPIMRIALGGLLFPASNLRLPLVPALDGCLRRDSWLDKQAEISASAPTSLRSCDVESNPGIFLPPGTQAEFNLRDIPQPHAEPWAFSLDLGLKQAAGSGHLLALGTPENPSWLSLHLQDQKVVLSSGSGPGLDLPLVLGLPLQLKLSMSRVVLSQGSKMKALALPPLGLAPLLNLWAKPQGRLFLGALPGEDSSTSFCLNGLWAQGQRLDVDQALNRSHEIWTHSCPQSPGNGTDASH", "settings": "cited from earlier work"}, "[1]": {"settings": "cited from earlier work"}, "MCF-7 cells": {"test_system": "MCF-7 cells", "settings": "and higher (288 pg/ml); cited from earlier work"}, "[2]": {"test_system": "long term estrogen deprived MCF7 breast cancer cells (LTED cells)", "assay": "Cell count in long term estrogen deprived MCF7 breast cancer cells (LTED cells)", "type": "cell-based, human", "settings": "for Cell number per well: cell count on Day 7", "description": "LTED cells were plated in 6-well plates at a density of 30,000 cells per well. The cells were maintained in phenol red free IMEM with 5% charcoal stripped FBS (DCC-FBS). On Day 3, the medium was replaced with fresh phenol red free IMEM with 5% DCC-FBS. […] The final vehicle concentration was 0.1% ethanol for all experiments. Each treatment was done in duplicate.\nOn Day 5, the medium was changed and on Day 7 plates were subjected to a cell count analysis."}, "[3]": {"settings": "single oral dose of 12 mg, postmenopausal women, cited from earlier work"}, "T-47D cells": {"test_system": "T-47D cells", "settings": "and higher (288 pg/ml); cited from earlier work"}, "[4]": {"test_system": "estrogen response element (ERE)", "settings": "breast cancer cells; cited from earlier work"}, "[5]": {"settings": "cited from earlier work", "remark": "listed apart in the source"}, "[6]": {"assay": "Single dose pharmacokinetics study of oral estriol in postmenopausal women", "type": "in vivo, human", "settings": "for concentration at 24 h / concentration at 48 h / concentration at 72 h: female, human, plasma, read-out: Average plasma level; for Average plasma level: 0-24 hours", "description": "A single dose pharmacokinetics study was conducted to evaluate the pharmacokinetics of different oral dosages of estriol in postmenopausal women. In total 16 women were assigned to two different groups (Cohort A and Cohort B). Each Cohort received two estriol treatments. […] A wash-out period of 7 days was taken into account between the treatments."}},
  "note": "Read-outs that look alike come from different tables or passages of the source.",
  "data": [
    {"compound": "C[C@]12CC[C@@H]3c4ccc(O)cc4CC[C@H]3[C@@H]1CC[C@@H]2O", "note": "[estradiol, 17beta-estradiol]", "values": [
      {"measurement": "Binding to SHBG", "setting": "SHBG; Hammond GL et al., Climacteric 2008", "value": "about 40%"}
    ]},
    {"compound": "C[C@]12CC[C@@H]3c4ccc(O)cc4CC[C@H]3[C@@H]1C[C@@H](O)[C@@H]2O", "note": "[estriol, estra-1,3,5(10)-triene-3,16α,17β-triol]", "values": [
      {"measurement": "Half-life after oral administration", "setting": "[1]; Maturitas (1990), 12:171-197", "value": "9 to 10", "unit": "h"},
      {"measurement": "Half-life after oral administration", "setting": "[1]; Summary of Product Characteristics of Synapause", "value": 1.5, "unit": "h"},
      {"measurement": "Conjugated in the intestine to glucuronides", "setting": "[1]; oral administration", "value": "80-90%"},
      {"measurement": "Conjugated in the intestine to sulfates", "setting": "[1]; oral administration", "value": "10-20%"},
      {"measurement": "Fraction that reaches the circulation", "setting": "[1]; oral administration", "value": "1-2%"},
      {"measurement": "Binding to SHBG", "setting": "SHBG", "value": "does not bind to SHBG"},
      {"measurement": "Concentration exerting a mitogenic effect", "setting": "MCF-7 cells", "value": "≥ 10^−9 M"},
      {"measurement": "Growth of LTED cells (result in words)", "setting": "[2]", "value": "able to inhibit the growth of LTED cells"},
      {"measurement": "Cell number per well", "setting": "[2]; 10^−5 M estriol", "value": "0.11 ×10^6"},
      {"measurement": "Cell number per well", "setting": "[2]; 10^−6 M estriol", "value": "0.18 ×10^6"},
      {"measurement": "Cell number per well", "setting": "[2]; 10^−7 M estriol", "value": "0.21 ×10^6"},
      {"measurement": "Cell number per well", "setting": "[2]; 10^−8 M estriol", "value": "0.22 ×10^6"},
      {"measurement": "Cell number per well", "setting": "[2]; 10^−9 M estriol", "value": "0.26 ×10^6"},
      {"measurement": "Cell number per well", "setting": "[2]; 10^−10 M estriol", "value": "0.56 ×10^6"},
      {"measurement": "Cell number per well", "setting": "[2]; 10^−11 M estriol", "value": "0.92 ×10^6"},
      {"measurement": "Cell number per well", "setting": "[2]; 10^−12 M estriol", "value": "1.17 ×10^6"},
      {"measurement": "Concentration at which peak inhibition is observed", "setting": "[2]; no significant further inhibition at higher concentrations", "value": "10^−9 M"},
      {"measurement": "Initial increase in estriol levels", "setting": "[3]; conversion of pmol/L value", "value": "144 to 288", "unit": "pg/mL"},
      {"measurement": "Initial increase in estriol levels", "setting": "[3]; lasted about four hours", "value": "500 to 1000", "unit": "pmol/L"},
      {"measurement": "Concentration exerting a mitogenic effect", "setting": "T-47D cells", "value": "≥ 10^−9 M"},
      {"measurement": "Concentration at which effects on ERE activation were visible", "setting": "[4]", "value": "10^−10 M"},
      {"measurement": "Peak levels", "setting": "[5]; oral administration of 6 mg estriol", "value": "80 to 220", "unit": "pg/mL"},
      {"measurement": "Peak levels", "setting": "[5]; oral administration of 12 mg", "value": "150 to 490", "unit": "pg/mL"},
      {"measurement": "concentration at 24 h", "setting": "[6]; oral dose 5 mg", "value": "0.017 ± 0.011", "unit": "ng/mL"},
      {"measurement": "concentration at 48 h", "setting": "[6]; oral dose 5 mg", "value": "0.011 ± 0.015", "unit": "ng/mL"},
      {"measurement": "concentration at 72 h", "setting": "[6]; oral dose 5 mg", "value": "2 ± 6", "unit": "pg/mL"},
      {"measurement": "concentration at 24 h", "setting": "[6]; oral dose 10 mg", "value": "0.047 ± 0.067", "unit": "ng/mL"},
      {"measurement": "concentration at 48 h", "setting": "[6]; oral dose 10 mg", "value": "0.012 ± 0.015", "unit": "ng/mL"},
      {"measurement": "concentration at 72 h", "setting": "[6]; oral dose 10 mg", "value": "1 ± 2", "unit": "pg/mL"},
      {"measurement": "concentration at 24 h", "setting": "[6]; oral dose 20 mg", "value": "0.064 ± 0.041", "unit": "ng/mL"},
      {"measurement": "concentration at 48 h", "setting": "[6]; oral dose 20 mg", "value": "0.03 ± 0.01", "unit": "ng/mL"},
      {"measurement": "concentration at 72 h", "setting": "[6]; oral dose 20 mg", "value": "8 ± 12", "unit": "pg/mL"},
      {"measurement": "concentration at 24 h", "setting": "[6]; oral dose 40 mg", "value": "0.121 ± 0.113", "unit": "ng/mL"},
      {"measurement": "concentration at 48 h", "setting": "[6]; oral dose 40 mg", "value": "0.052 ± 0.014", "unit": "ng/mL"},
      {"measurement": "concentration at 72 h", "setting": "[6]; oral dose 40 mg", "value": "13 ± 8", "unit": "pg/mL"},
      {"measurement": "Tolerability", "setting": "[6]; high oral dose levels, postmenopausal women", "value": "well tolerated"},
      {"measurement": "Plasma levels of estriol after 72 hours", "setting": "[6]; oral administration of 20 mg or 40 mg estriol", "value": "still significant after 72 hours"},
      {"measurement": "Plasma levels of estriol over 24 hours", "setting": "[6]; oral administration of estriol 5-40 mg", "value": "remained fairly constant over 24 hours"},
      {"measurement": "Average plasma level", "setting": "[6]; oral dose 5 mg", "value": 28, "unit": "pg/mL"},
      {"measurement": "Average plasma level", "setting": "[6]; oral dose 10 mg", "value": 39, "unit": "pg/mL"},
      {"measurement": "Average plasma level", "setting": "[6]; oral dose 20 mg", "value": 103, "unit": "pg/mL"},
      {"measurement": "Average plasma level", "setting": "[6]; oral dose 40 mg", "value": 110, "unit": "pg/mL"},
      {"measurement": "Plasma levels of estriol late after dosing", "setting": "[6]; single oral dose 5-40 mg", "value": "still measurable up to 72 hrs post dosing"},
      {"measurement": "Time of second increase after dosing (enterohepatic circulation)", "setting": "[6]; single oral dose 5-40 mg", "value": "4 to 6", "unit": "h"},
      {"measurement": "Time of peak levels after dosing", "setting": "[6]; single oral dose 5-40 mg, approximately", "value": "1 to 2", "unit": "h"}
    ]}
  ]
}
